This note sets out measurements from patent publication US12030908B2, “Antimicrobial compounds, compositions, and uses thereof” (Lakewood Amedex, Inc., priority 2017, dated 2024).

The nature of one data set: pKa measurement. In kind it is physicochemical.
Data set [1] has as its system Escherichia coli (strain CFT073, TPPS 1041). Kind of data set: Initial urinary tract infection model in BALB/c mice, transurethral treatment (Example 9). In kind it is in vivo. Conditions: pH 3.5, 1025 mg/kg transurethral. From the text: Female BALB/c mice (20-22 g) ordered from Envigo are acclimated to housing conditions and handled in accordance with Animal Use Protocol (AUP) number TP-08. Animals are fed irradiated Teklad Global 29 18 Rodent Diet and water ad libitum. Mice are housed 6/cage in static cages with irradiated ⅛″ Teklad corn cobbedding 7902 inside bioBubble® clean rooms that provide H.E.P.A filtered air into the bubble environment at 100 complete air changes per hour. The environment is controlled to a temperature range of 74°±4° F. and a humidity range of 30-70%. All procedures carried out in this experiment are conducted in compliance with the laws, regulations, and guidelines of the National Institutes of Health and with the approval of the TransPharm Preclinical Solutions Animal Care and Use Committee.
A clinical isolate of Escherichia coli (strain CFT073, TPPS 1041) are procured from the University of Michigan.
The organism is grown overnight at 37° C. in ambient atmosphere on trypticase soy agar plates supplemented with 5% sheep blood cells. The culture is aseptically swabbed and transferred to tubes of trypticase soy broth. The optical density is determined at 600 nm. The culture is diluted to provide an inoculum of approximately 7.5 log10 CFU per mouse in a volume of 30 μL. Instillation of the bacterial challenge constituted time 0 hour for the study. Inoculum counts are estimated before inoculation by optical density and confirmed after inoculation by dilution and back counts.
One hour prior to bacterial challenge, water is removed from animal cages. […]
The primary endpoint used to assess progress of the infection is mean bacterial burden per gram of urinary bladder tissue. […] Colony forming units (CFU) are enumerated and the total bacterial burden per gram of urinary bladder tissue homogenate is calculated.
The geometric mean CFU, along with standard error of the mean (SEM), are calculated using Microsoft Excel and bar charts are prepared for the data using GraphPad Prism v. […]

Data set [2] is described as follows: Body weight in the Acinetobacter baumannii lung infection model (Example 25). The class given is in vivo, BALB/c mice.
Another data set has as its system Escherichia coli. Kind of data set: MIC at pH 3.5, CLSI, Mueller-Hinton broth. In kind it is cell-based. The settings on record: 5 isolates. Here is the method:
(§1) Bacterial strains evaluated in this study include Escherichia coli, Klebsiella spp, Serratia marcescens, Proteus mirabilis/vulgaris, Citrobacter spp, Providencia spp, Morganella morganii, Pseudomonas aeruginosa, Staphylococcus aureus (MRSA only), and Enterococcus faecalis. Nu-8 test solutions are adjusted to pH 3.5 with citric acid, and […] is evaluated per the CLSI methods in Mueller-Hinton broth supplemented accordingly to facilitate growth of specific strains.

Another data set relates to Serratia marcescens. Kind of data set: MIC at pH 3.5, CLSI, Mueller-Hinton broth. The class given is cell-based. The settings on record: 5 isolates. Here is the method:
as §1

The subject of data set [3] is Proteus mirabilis/vulgaris. Kind of data set: MIC at pH 3.5, CLSI, Mueller-Hinton broth. The settings on record: 5 isolates. In kind it is cell-based. Here is the method:
as §1

The subject of another data set is Morganella morganii. The data set can be described thus: MIC at pH 3.5, CLSI, Mueller-Hinton broth. Conditions: 5 isolates. In kind it is cell-based. Here is the method:
as §1

For data set [4], the system named is Staphylococcus aureus (MRSA). The data set can be described thus: MIC at pH 3.5, CLSI, Mueller-Hinton broth. In kind it is cell-based. The settings on record: 20 isolates. Here is the method: as §1
Data set [5] deals with wild type E. coli (ATCC 25922). The data set can be described thus: Bacterial cytological profiling at pH 4, 5.5, 7 (Example 7), E. coli. In kind it is cell-based. The settings on record: pH 5.5 and 7. Here is the method: This bacterial cytological profiling (BCP) investigation uses methods and materials described previously by Nonejuie, P., Burkart, M., Poglianoa, K., Pogiano, J. (2013). Bacterial cytological profiling rapidly identifies the cellular pathways targeted by antibacterial molecules. Proc. Natl. Acad. Sci. U.S.A. 110(40):16169-16174. doi: 10.1073/pnas.1311066110.
For viable cell counts, cells are grown to OD600≈0.4 and diluted 1:1 into buffered or unbuffered media containing various compound concentrations. Samples are then collected and serially diluted (1:10) on a 96 well plate. Five microliters from each well are spotted on LB plates, incubated at 30° C., and viable cells are counted the next day.
Samples are collected at 10, 30, 120, and 240 min of exposure for viable cell count and imaging. For imaging, E. coli and S. aureus 200 μL of treated cells per time point are stained with 0.8 μg/mL FM4-64, 1.5 μg/mL DAPI, and 0.4 μM SYTOXGreen (Molecular Probes/Invitrogen). P. aeruginosa samples are stained 0.4 μM SYTOX Green, 28 μg/mL DAPI, and 1 μg/mL FM 4-64. Cells are transferred to an agarose pad (20% LB, 1% agarose) for imaging.
For Nu-3 and Nu-8 stocks (at pH 4, 5.5 and 7), stock concentration is 500 mg/mL. For pH 4, the stocks are prepared by dissolving Nu-3 in 25 mM citrate buffer and Nu-8 in 350 mM citric acid. […]

[6] abbreviates: Nu-8 (10%), 3 doses, once daily for 3 days.
Where [7] appears, read: Nu-8 (10%), 5 doses, once daily for 5 days.

Turning to `CCCCOP(=O)(O)OC[C@H]1O[C@@H](n2ccc(N)nc2=O)C[C@@H]1OP(=O)(O)OCCCC` [Nu-8, sodium ((2R,3S,5R)-5-(4-amino-2-oxopyrimidin-1(2H)-yl)-3-((butoxyoxidophosphor-yl)oxy)tetrahydrofuran-2-yl)methyl butyl phosphate], in “pKa measurement”, the pKa was 3.20. Further, the “mean bladder CFU burden” value is 2.9 log10 in [1] (20 minutes post-treatment) and 3.7 log10 CFU in [1] (60 minutes post-treatment). Besides, the “Body Weight (g) Mean ± SD Day 0” value in data set [2] (setting [6]) is reported as 25.0 ± 0.6 g; in data set [2] (setting [7]), 24.8 ± 0.8 g; in data set [2] (Nu-8 (10%), single dose) it was 24.8 ± 0.8 g. The “Body Weight (g) Mean ± SD Day 1” value in [2] (setting [6]) is 24.3 ± 0.5 g; in [2] (setting [7]), 24.0 ± 0.6 g; in [2] (Nu-8 (10%), single dose), 24.0 ± 0.9 g. The “Body Weight (g) Mean ± SD Day 3” value was 23.7 ± 0.5 g in data set [2] (setting [6]) and 23.2 ± 0.8 g in [2] (setting [7]). The “Body Weight (g) Mean ± SD Day 2” value in data set [2] (Nu-8 (10%), 5 doses, once daily for 5 days, Day 2) was 23.3 ± 0.5 g. Besides, the “Body Weight (g) Mean ± SD Day 4” value in data set [2] (Nu-8 (10%), 5 doses, once daily for 5 days, Day 4) was found to be 23.3 ± 1.0 g. For the same compound, the “Body Weight (g) Mean ± SD Day 5” value in data set [2] (Nu-8 (10%), 5 doses, once daily for 5 days, Day 5) worked out at 24.0 ± 0.6 g. Moreover, the “change in mean body weights” value in data set [2] (vehicle and treatment groups) is recorded as “Decreases in mean body weights were observed”. The “Nu-8 MIC (mg/mL) at pH 3.5” value is reported as 37.5 mg/mL in the data set with Escherichia coli; 37.5-75 mg/mL with Serratia marcescens; 4.69-18.75 mg/mL in data set [3]; 18.75 mg/mL in the data set on Morganella morganii; 9.38-37.5 mg/mL in [4] (MIC range). Besides, in [4], the “MIC50 at pH 3.5” value worked out at 18.75 mg/mL. Also, the “MIC90 at pH 3.5” value in data set [4] was 37.5 mg/mL. Moreover, in data set [5], the “effect on cell permeability, cell viability and growth” value is “alters E. coli cell permeability and reduces cell viability and growth”.

What is called pKa is the pH at which an ionisable group is half protonated. The low end stands for a group that gives up its proton readily, the high end for a group that holds its proton tightly. As a reminder, the MIC50 is the lowest concentration that inhibits either 50% of growth or 50% of the strains tested, depending on the study. Read a low MIC50 as greater potency. What is called MIC90 is the lowest concentration that inhibits either 90% of growth or 90% of the strains tested, depending on the study.
